Patent US4968819A, “Process for the preparation of chromene derivatives” (Alkaloida Vegyeszeti Gyar, priority 1983, dated 1990)
Entries after “also recorded” stand apart in the source; their conditions may differ. Where two headings read alike, the source gives them in different places. Values belong to the compound of their own block, whether it stands above or below them.

What was measured:
[1] = pK by spectrophotometrical measurement; format: physicochemical; settings: for pK7 (2.): 7-OH; for pKX (2.): second OH, X = 5, 6 or 8
From the text: (§1) This difference can be strengthened by deliberate direction of the reaction conditions to such an extent that selective mono-O-substitution can be carried out with excellent yields. It has been confirmed by various measurements and calculations (PMR, CMR, UV-VLS spectrophotometrical and potentiometric acid-base titrations, pK determinations, "all valence" CNDO quantumchemical calculations. electrostatical potential map calculation) that the hydroxy group in position 7 is the most reactive while the hydroxy groups in positions 5, 6 and 8, respectively, are less reactive.
(2.) according to spectrophotometrical measurement).

[2] = pK by potentiometrical titration; format: physicochemical; settings: 7-OH
From the text: as §1
(1.) is determined by potentiometrical titration and […]

[3] = system: cabbage butterfly (Pieris brassicae); assay: Cabbage butterfly test (sprayed cabbage seedlings); format: in vivo; settings: Pieris brassicae; 50 EC, 0.1%; read-out: Killing rate of larvae
Description: From the 50 EC of the test compound a diluted series is prepared with water and the host seedlings (cabbage) are sprayed with this composition until the spray runs down. The spray is allowed to dry whereupon 20 young larvae of the II. stage are placed on each treated plant and the seedlings are kept under so-called "long-day" illumination (18 hours of illumination and 6 hours of darkness). The nibbled plants are replaced by similarly sprayed plants if necessary. The killing rate of the insects, the growth rate of the larvae and the morphological deformations of the surviving nymphs and adults are registered.
In the 50 EC compositions the concentration of compounds 23 and 25 amounts to 0.01% and that of the other compounds to 0.1%.

mustard beetle = assay: Mustard beetle test (sprayed mustard seedlings); format: in vivo; settings: concentration 1%
Description: Two weeks' old mustard seedlings are sprayed with a solution of 0.1 g of the test compound, 0.5 ml of dimethyl sulfoxide, and 10 μl of 50 EC composition in 10 ml of water. After the spray is dried, 20 mustard larvae of the II. stage are placed on each plant. The sprayed plants are charged every second day. The evaluation is based on the number of the imagos hatching from the nymphs.

[4] = system: domestic fly (Musca domestica); assay: Domestic fly test (larvae in treated nutrient medium); format: in vivo; settings: 0.1% related to milk, 0.05% related to total nutrient medium
Description: The fly larvae are grown on a nutrient medium of the following composition: 2 ml of milk; 2 ml of water; 2 g of wheat bran; 0.1 ml of saturated alcoholic nipagin solution.
The nutrient medium is filled into cylindrical glass vials (30×100 mm) and 25 fly larvae are raised in each vial. The test compound is dissolved in milk; the end concentration (related to milk) amounts to 0.1% which corresponds to 0.05% (related to the total nutrient medium). The solution of the active ingredient is admixed with the nutrient medium whereupon […] of domestic fly larvae of the I. stage are placed into each vial and the vials are closed with a hard cotton-wool stopper. The nymphs emerging from the larvae are collected in each vial, counted and kept in a Petri dish (diameter 25 mm) until flies hatch from the nymphs. The hatched flies are counted.

Caenorhabditis elegans = Caenorhabditis elegans test (treated NGM agar plate, young adults); format: in vivo
Description: (5) Caenorhabditis elegans 0.5 ml of the acetonous solution of the test compound is applied onto a NGM agar plate free from bacteria in a Petri dish. After the acetone has dried 25-30 young adults are placed on the plate. After 24 hours the surviving and killed insects are counted.

[5] = system: cotton bug (Dysdercus fasciatus); assay: Cotton bug test (topical application on II. stage larvae); format: in vivo; settings: for AJH effect: adultoid symptoms
Description: (1) Cotton bug test A dilution series is prepared from the test compound with acetone and 0.2 μl of each dilution is topically applied onto the back part of larvae of the II. stage of growth with the aid of a Hamiltion syringe. The active ingredient is absorbed through the cuticula. The animals are kept in a large glass and fed with cotton grains and water. After adult shedding the surviving insects are observed for eventual adultoid symptoms, the egg-reproduction and the development of the ovules is evaluated too. (Remark: in the cotton bug test 50 insects are used).

[6] = system: tomato root gall nematode (Meloidogyne incognita); assay: Tomato root gall nematode test (II. stage infective larvae, treated NGM agar plate); format: in vivo; settings: 72 hours; for mortality at 200 µg/mL / mortality at 400 µg/mL: Meloidogyne incognita
Description: (6) Root gall nematode The test is carried out on II. stage infective larvae, which are collected from the root of tomato plant, placed on a filter and incubated in sterile water at 25° C. The hatched larvae are collected every 24 hours and immediately placed onto the treated nutrient medium. As nutrient medium NGM agar plate free from bacterial is used. 0.5 ml of the acetoneous solution of the test compound is applied onto the surface of the plate in a Petri-dish. After the acetone has evaporated 5 μl of the larva suspension is applied onto each plate. After 72 hours the surviving and killed insects are counted.

insects = settings: compared with P2; listed as P3; cited from earlier work
[7] = 200 μg/ml, first test, read-out: mortality 1.
[8] = 200 μg/ml, second test, read-out: mortality 2.
[9] = 200 μg/ml, read-out: mortality Average
[10] = 400 μg/ml, first test, read-out: mortality 1.
[11] = 400 μg/ml, second test, read-out: mortality 2.
[12] = 400 μg/ml, read-out: mortality Average

- pK7 (2.) [1]: 6.9
- pKX (2.) [1]: 11.4
- pK7 (1.) [2]: 6.8
Structure (SMILES): CC1(C)CC(=O)c2cc(O)c(O)cc2O1 [6-OH 7-OH 4-H, 6,7-dihydroxy-2,2-dimethyl-4-chromanone]

Structure (SMILES): CCCOc1ccc2c(c1OC)OC(C)(C)C=C2 [Compound 51]
- pest or weed control at 0.1 % [3]: 100%
- Survival, adults (mustard beetle): 45%
- Survival adult [4]: 0%
- Survival nymph [4]: 12%

Structure (SMILES): CCOc1cc2c(cc1OC)C=CC(C)(C)O2 [Compound 3, 6-methoxy-7-ethoxy-2,2-dimethyl-2H-chromene, reference compound]
- Size of descendant population (Caenorhabditis elegans; 200 μg/ml): some descendants
- Size of descendant population (Caenorhabditis elegans; 400 μg/ml): no descendants
- LD50 [5]: 0.5 μg/insect
- Sterilizing effect [5]: 10 μg/insect
- AJH effect [5]: 10 μg/insect
- Nematocidal effect ([6]; 400 μg/ml): strong
- mortality at 200 µg/mL [6, 7]: 24%
- mortality at 200 µg/mL [6, 8]: 20%
- mortality at 200 µg/mL [6, 9]: 22%
- mortality at 400 µg/mL [6, 10]: 100%
- mortality at 400 µg/mL [6, 11]: 95%
- mortality at 400 µg/mL [6, 12]: 97%
- effectiveness/activity relative to P2 (insects): ten times more active; also recorded: ten times more effective

- pK7 (2.) [1]: 7.2
- pKX (2.) [1]: 11.6
- pK7 (1.) [2]: 7.2
Structure (SMILES): CC1(C)CC(=O)c2ccc(O)c(O)c2O1 [8-OH 7-OH 4-H, 7,8-dihydroxy-2,2-dimethyl-4-chromanone]

Structure (SMILES): Cc1cc(OCC(C)C)cc2c1C=CC(C)(C)O2 [Compound 42]
- pest or weed control at 0.1 % [3]: 100%
- Survival, adults (mustard beetle): 27%
- Survival adult [4]: 25.5%
- Survival nymph [4]: 45.4%

Structure (SMILES): COc1cc2c(cc1OC)OC(C)(C)C=C2 [Compound 1, 6,7-dimethoxy-2,2-dimethyl-2H-chromene, reference compound]
- Size of descendant population (Caenorhabditis elegans; 200 μg/ml): no descendants
- Size of descendant population (Caenorhabditis elegans; 400 μg/ml): no descendants
- LD50 [5]: 0.6 μg/insect
- Sterilizing effect [5]: 10 μg/insect
- AJH effect [5]: 1 μg/insect
- Nematocidal effect ([6]; 200 μg/ml): strong
- Nematocidal effect ([6]; 400 μg/ml): strong
- mortality at 200 µg/mL [6, 7]: 76%
- mortality at 200 µg/mL [6, 8]: 76%
- mortality at 200 µg/mL [6, 9]: 76%
- mortality at 400 µg/mL [6, 10]: 98%
- mortality at 400 µg/mL [6, 11]: 95%
- mortality at 400 µg/mL [6, 12]: 97%

- pK7 (2.) [1]: 7.0
- pKX (2.) [1]: 11.6
- pK7 (1.) [2]: 7.4
Structure (SMILES): CC1(C)CC(=O)c2c(O)cc(O)cc2O1 [5-OH 7-OH 4-OH, 5,7-dihydroxy-2,2-dimethyl-4-chromanone]
